From patent US20140212487A1, “SOLID DISPERSION FORMULATION OF AN ANTIVIRAL COMPOUND” (priority 2013, published 2014) come the findings set out here.

Series [1] in a line: Pharmacokinetics after oral administration of tablets in beagle dogs. Type of series: in vivo. Particulars: pentagastrin pretreatment. Also on record: AUC0-24, mean (RSD) / F / AUC(0-t): dose or concentration left out as unconfirmed. The procedure:
A series of in vivo experiments were conducted to evaluate the potential benefit of the solid dispersion approach relative to conventional formulations, as well as to optimize the solid dispersion by identifying the most beneficial polymer type and relative polymer concentration within the dispersion.
Pentagastrin is a synthetic polypeptide that stimulates the secretion of gastric acid, pepsin, and intrinsic factor. […]

The subject of series [2] is HCV. The series is described as follows: Breakthrough (BT) rate of ledipasvir in combination with other therapeutic agents. Type of series: in vivo, Hepatitis C virus. The procedure:
Therefore, the 90 mg dose of ledipasvir may confer a greater antiviral coverage that prevents viral breakthrough.

Series [3] is described as follows: Chemical stability in the ethanolic feed solution.
The nature of the next series: clinical. Particulars: in vivo, 30 mg; for half-life: t1/2, conventional formulation, median; for AUC(0-inf): AUCinf; for AUC(0-inf) / AUC(0-t) / Cmax / Vd/F: conventional formulation; for AUC(0-t): AUClast; for Vd/F: Vz/F.
Series [4] has as its system HCV. As to the kind of experiment: Antiviral response for dose selection of ledipasvir in HCV infected subjects. Type of series: in vivo, Hepatitis C virus. How it is done: The maximum median HCV RNA log 10 reduction was 3 or greater for all cohorts dosed with >3 mg of ledipasvir. […] Therefore, 30 mg and 90 mg of ledipasvir were selected as the dose for the formulations described herein.

The conditions of series [5]: conventional formulation; for Clast, mean: 30 mg single dose.
Series [6] in a line: Solubility of ledipasvir in spray dry feed solvents. The conditions noted are these: organic solvent or mixture. It counts as physicochemical. How it is done: The feed solution was initially evaluated for appropriate solvent with regard to solubility, stability, and viscosity. […] Ethanolic and DCM-based feed stocks were assessed for preparation ease and spray dried at a range of inlet and outlet temperatures to assess the robustness of the spray dry process. Both solvents gave rapid dissolution of ledipasvir and copovidone.

A short description of series [7]: Aqueous solubility screening of ledipasvir in the presence of polymers. Type of series: physicochemical. The procedure: Solubility screening experiments were performed for ledipasvir in the presence of a variety of polymers, including hydroxypropyl cellulose, hypromellose, povidone and copovidone. […] Hypromellose, povidone, and copovidone increased the solubility of ledipasvir. […] Thus, in one embodiment, the polymer is selected from hypromellose, povidone, and copovidone.

Setting [8] is: po, Geometric Least Squares Mean (GLSM), fasted.
Setting [9] is: po, Geometric Least Squares Mean (GLSM), fed.
Setting [10] is: po, mean, 30 mg single dose, fasted.
Where [11] appears, read: po, mean, 30 mg single dose, fed (high-fat meal).
Setting [12] is: 30 mg, high-fat meal versus fasted.

Where two headings read alike, the source gives them in different places.

Turning to `COC(=O)N[C@H](C(=O)N1CC2(CC2)C[C@H]1c1ncc(-c2ccc3c(c2)C(F)(F)c2cc(-c4ccc5nc([C@@H]6[C@H]7CC[C@H](C7)N6C(=O)[C@@H](NC(=O)OC)C(C)C)[nH]c5c4)ccc2-3)[nH]1)C(C)C` [Amorphous Free base], in series [1] (dog, in vivo, read-out: AUC0-24, mean (RSD)), the AUC(0-t) was determined as 8.03 µM·h. In addition, the Cmax in series [1] (dog, in vivo, read-out: Cmax, mean (RSD)) came out at 743 nM. The F in series [1] is on record as 71%.
Take `COC(=O)N[C@H](C(=O)N1CC2(CC2)C[C@H]1c1ncc(-c2ccc3c(c2)C(F)(F)c2cc(-c4ccc5nc([C@@H]6[C@H]7CC[C@H](C7)N6C(=O)[C@@H](NC(=O)OC)C(C)C)[nH]c5c4)ccc2-3)[nH]1)C(C)C.O=C(O)C(O)C(O)C(=O)O` [Crystalline D-tartrate]: in series [1], the “AUC0-24, mean (RSD)” value is 7623 (44) nM * hr and the F is recorded as 67%.
Consider `COC(=O)N[C@H](C(=O)N1CC2(CC2)C[C@H]1c1ncc(-c2ccc3c(c2)C(F)(F)c2cc(-c4ccc5nc([C@@H]6[C@H]7CC[C@H](C7)N6C(=O)[C@@H](NC(=O)OC)C(C)C)[nH]c5c4)ccc2-3)[nH]1)C(C)C` [Ledipasvir, (1-{3-[6-(9,9-difluoro-7-{2-[5-(2-methoxycarbonylamino-3-methyl-butyryl)-5-aza-spiro[2.4]hept-6-yl]-3H-imidazol-4-yl}-9H-fluoren-2-yl)-1H-benzoimidazol-2-yl]-2-aza-bicyclo[2.2.1]heptane-2-carbonyl}-2-methyl-propyl)-carbamic acid methyl ester], for which the “breakthrough (BT) rate” value is 33% in the series on HCV [2] (30 mg ledipasvir in combination with other therapeutic agents, 11/33) and 12% in the series with HCV [2] (90 mg ledipasvir in combination with other therapeutic agents, 9/74). Besides, the “chemical stability in the ethanolic feed solution” value in series [3] is “good chemical stability”. Besides, the half-life in the series “clinical” (30 mg single dose, fasted) is 2390 min; in “clinical” (30 mg single dose, fed (high-fat meal)), 2210 min. Moreover, the Tmax in the series “clinical” (po) was 6 h. In addition, the AUC(0-inf) in the series “clinical” (setting [8]) was 2060 ng·h/mL; in the series “clinical” (setting [9]) it was 1140 ng·h/mL; in the series “clinical” (setting [10]), 2420 ng·h/mL; in the series “clinical” (setting [11]) it was 1180 ng·h/mL. For the same molecule, the AUC(0-t) in “clinical” (setting [8]) was found to be 1720 ng·h/mL; in the series “clinical” (setting [9]), 978 ng·h/mL; in the series “clinical” (setting [10]), 1990 ng·h/mL; in “clinical” (setting [11]), 996 ng·h/mL. The Cmax came out at 65.3 ng/mL in the series “clinical” (setting [8]), 35.9 ng/mL in “clinical” (setting [9]), 73.1 ng/mL in the series “clinical” (setting [10]) and 36.5 ng/mL in the series “clinical” (setting [11]). In addition, the figures for the Vd/F in the series “clinical” (setting [10]) and in “clinical” (setting [11]) were 877 L and 1390 L, respectively. Also, the “maximum median HCV RNA log 10 reduction” value in the series on HCV [4] (all cohorts dosed with >3 mg of ledipasvir) is recorded as at least 3 log 10. In addition, in the series with HCV [4] (exposures after 30 mg dose, genotype 1a HCV infected subjects), the “fraction of maximal antiviral response (Emax PK/PD model)” value was over 95%. Moreover, the “Clast, mean” value in series [5] (fasted) is reported as 6.8 ng/mL; in series [5] (fed (high-fat meal)), 3.1 ng/mL. Moreover, the “decrease in mean AUCinf” value in series [5] (setting [12]) was “approximately 45%”. In addition, in series [5] (setting [12]), the “decrease in mean AUClast” value is on record as “approximately 45%”. Moreover, in series [5] (setting [12]), the “decrease in mean Cmax” value is given as “approximately 45%”. Besides, the solubility in series [6] (dichloromethane (DCM)), in series [6] (ethanol) and in series [6] (methanol) was over 500 mg/mL throughout. Moreover, the “increase of aqueous solubility of ledipasvir” value turned out to be 10 fold in series [7] (pH 5, 0.1% w/w copovidone); 3 fold in series [7] (pH 5, 0.1% w/w hypromellose); 4 fold in series [7] (pH 5, 0.1% w/w povidone).

As usually defined, the Cmax is the maximum level reached in the sampled fluid or tissue. For orientation: half-life means the time needed for the level to fall by half in the phase considered. What is called Tmax is the time from dosing to the highest level. One may read the AUC(0-inf) as the area under the concentration-time curve extrapolated to infinity. What is called Vd/F is the volume of distribution divided by bioavailability. What is called solubility is the dissolved amount per volume that the medium holds.
